One assay addresses T1, Adenosine receptor A1 (Homo sapiens, UniProt P30542).
T1 sequence (P30542 whole entry): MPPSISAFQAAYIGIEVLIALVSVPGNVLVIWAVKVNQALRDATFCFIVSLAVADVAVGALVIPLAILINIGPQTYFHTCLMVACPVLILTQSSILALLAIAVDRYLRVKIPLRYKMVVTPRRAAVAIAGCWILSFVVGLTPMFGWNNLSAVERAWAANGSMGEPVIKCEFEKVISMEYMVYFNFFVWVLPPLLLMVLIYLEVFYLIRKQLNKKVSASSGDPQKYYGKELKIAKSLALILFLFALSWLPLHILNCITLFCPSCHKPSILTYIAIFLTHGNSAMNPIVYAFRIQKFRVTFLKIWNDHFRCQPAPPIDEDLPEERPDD
The assay can be described thus: Displacement of [3H]CPX from human adenosine A1 receptor expressed in CHO cells. Background: Displacement assays read how much labelled ligand stays bound in the presence of the test substance.

The target of another assay is Adenosine receptor A2a (Homo sapiens, UniProt P29274). The assay can be described thus: Displacement of [3H]ZM-241385 from human adenosine A2a receptor expressed in HEK cells. The assay is classed as cell-based, HEK293.
Chain of Adenosine receptor A2a (P29274 whole entry): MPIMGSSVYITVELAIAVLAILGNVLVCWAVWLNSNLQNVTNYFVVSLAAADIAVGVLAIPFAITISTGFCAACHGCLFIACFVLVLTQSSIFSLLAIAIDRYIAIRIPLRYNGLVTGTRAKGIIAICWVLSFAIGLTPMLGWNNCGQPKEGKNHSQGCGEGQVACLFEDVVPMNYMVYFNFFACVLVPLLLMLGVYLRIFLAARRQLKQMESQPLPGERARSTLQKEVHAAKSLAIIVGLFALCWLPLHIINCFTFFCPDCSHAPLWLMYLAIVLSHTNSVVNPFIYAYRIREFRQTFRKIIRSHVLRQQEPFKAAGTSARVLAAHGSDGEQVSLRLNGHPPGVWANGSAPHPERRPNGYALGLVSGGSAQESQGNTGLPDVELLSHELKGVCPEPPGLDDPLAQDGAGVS
A further assay has as its target T2, Adenosine receptor A2b (Homo sapiens, UniProt P29275).
T2 sequence (P29275 whole entry): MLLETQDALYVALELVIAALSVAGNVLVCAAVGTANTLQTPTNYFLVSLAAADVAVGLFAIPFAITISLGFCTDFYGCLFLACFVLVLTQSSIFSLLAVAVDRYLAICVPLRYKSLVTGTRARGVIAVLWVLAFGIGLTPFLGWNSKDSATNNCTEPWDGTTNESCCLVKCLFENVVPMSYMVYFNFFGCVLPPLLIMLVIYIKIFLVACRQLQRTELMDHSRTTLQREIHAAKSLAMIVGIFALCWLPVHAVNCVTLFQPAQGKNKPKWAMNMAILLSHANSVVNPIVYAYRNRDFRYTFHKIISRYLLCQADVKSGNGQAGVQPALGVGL
The assay can be described thus: Displacement of [3H]ZM241385 from human adenosine A2b receptor expressed in HEK cells. The format is cell-based, HEK293.

The target of assay [1] is Adenosine receptors; A1 & A2b (Homo sapiens) (UniProt P30542+P29275). The assay can be described thus: Selectivity for human adenosine A2b receptor over adenosine A1 receptor. The format is protein assay.
Assay [2] concerns the target Adenosine A2 receptor (Homo sapiens) (UniProt P29275+P29274). The assay can be described thus: Selectivity for human adenosine A2b receptor over adenosine A2a receptor. The format is protein assay.

The results in this text go back to ChEMBL document CHEMBL1148648, “Novel 1,3-disubstituted 8-(1-benzyl-1H-pyrazol-4-yl) xanthines: high affinity and selective A2B adenosine receptor antagonists” (J Med Chem, 2006).

Usually Ki stands for a dissociation constant, usually derived from enzyme kinetics or from competition with a known ligand. Low readings indicate higher affinity, high ones lower affinity. On to `CCCn1c(=O)c2nc(-c3cnn(Cc4ccccc4Cl)c3)[nH]c2n(CCC)c1=O`, for which the Ki at Adenosine receptor A1 came to 59 nM; at Adenosine receptor A2a, 49 nM; on Adenosine receptor A2b, 20 nM. In addition, the Ratio Ki in assay [1] is 3.

`CCCn1c(=O)c2[nH]c(-c3cnn(-c4ccccc4)c3)nc2n(CCC)c1=O`: the Ki at Adenosine receptor A1 was determined as 770 nM; on Adenosine receptor A2a it was 560 nM; at Adenosine receptor A2b it was 310 nM.

In the case of `CCCn1c(=O)c2[nH]c(-c3cnn(Cc4cc(C(F)(F)F)cc(C(F)(F)F)c4)c3)nc2n(CCC)c1=O`, the Ki at Adenosine receptor A2b amounted to 350 nM.

Consider `CCCn1c(=O)c2[nH]c(-c3cnn(Cc4cc(C(F)(F)F)cc(Cl)c4F)c3)nc2n(CCC)c1=O`, for which the affinity on Adenosine receptor A2b, expressed as Ki, was 360 nM.

In the case of `CCCn1c(=O)c2[nH]c(-c3cnn(Cc4ccccc4C(F)(F)F)c3)nc2n(CCC)c1=O`, the values for the Ki on Adenosine receptor A1, on Adenosine receptor A2a and on Adenosine receptor A2b were 44 nM, 230 nM and 37 nM, respectively.

With `Cn1c(=O)c2[nH]c(-c3cnn(Cc4cccc(F)c4)c3)nc2n(C)c1=O`, the Ki on Adenosine receptor A1 is 460 nM; at Adenosine receptor A2a it was 200 nM; on Adenosine receptor A2b, 27 nM. In addition, the Ratio Ki in assay [2] stood at 7; in assay [1], 17.

Consider `CCCCn1c(=O)c2nc(-c3cnn(Cc4ccccc4)c3)[nH]c2n(CCCC)c1=O`, for which the Ratio Ki in assay [2] and in assay [1] was 1 in each case.

For the molecule `CCCn1c(=O)c2c(nc(-n3cccn3)n2Cc2ccccc2)n(CCC)c1=O`, the Ki on Adenosine receptor A2b is greater than 5800 nM.

At Adenosine receptor A1, `CCCn1c(=O)[nH]c(=O)c2[nH]cnc21` [ENPROFYLLINE] showed a Ki of 42000 nM.

Turning to `CC(C)Cn1c(=O)c2[nH]c(-c3cnn(Cc4cccc(C(F)(F)F)c4)c3)nc2n(CC(C)C)c1=O`, the Ki at Adenosine receptor A1 was determined as 3100 nM; at Adenosine receptor A2a, 4300 nM; on Adenosine receptor A2b it was 300 nM.

With `CCCn1c(=O)c2[nH]c(-c3cnn(Cc4ccccc4F)c3)nc2n(CCC)c1=O`, the Ki on Adenosine receptor A1 worked out at 19 nM; on Adenosine receptor A2a, 60 nM; at Adenosine receptor A2b, 28 nM.

Take `CCCCn1c(=O)c2[nH]c(-c3cnn(Cc4ccccc4)c3)nc2n(CCCC)c1=O`: the Ki was determined as 1400 nM at Adenosine receptor A1, 890 nM at Adenosine receptor A2a and 980 nM at Adenosine receptor A2b.

Regarding `CCCn1c(=O)c2nc(-c3cnn(Cc4ccccc4F)c3)[nH]c2n(CCC)c1=O`, the results for the Ratio Ki in assay [2] and in assay [1] were 2 and 0.6, respectively.

Take `CCCn1c(=O)c2[nH]c(-c3cnn(Cc4cc(F)ccc4Cl)c3)nc2n(CCC)c1=O`: affinity on Adenosine receptor A2b was put at a Ki of 4800 nM.

For the molecule `CC(C)Cn1c(=O)c2nc(-c3cnn(Cc4ccccc4)c3)[nH]c2n(CC(C)C)c1=O`, the Ratio Ki in assay [2] turned out to be 1; in assay [1], 0.5.

As to `CCCn1c(=O)c2nc(-c3cnn(Cc4ccccc4C)c3)[nH]c2n(CCC)c1=O`, the Ratio Ki in assay [2] came to 2; in assay [1], 0.6.

Regarding `CCCn1c(=O)c2nc(-c3cnn(-c4ccccc4)c3)[nH]c2n(CCC)c1=O`, the Ratio Ki in assay [2] and in assay [1] was 2 throughout.

In the case of `CCn1c(=O)c2[nH]c(-c3cnn(Cc4ccccc4)c3)nc2n(CC)c1=O`, the Ki stood at 580 nM at Adenosine receptor A1, 120 nM at Adenosine receptor A2a and 19 nM at Adenosine receptor A2b.

Consider `CCCn1c(=O)c2[nH]c(-c3cnn(Cc4ccc(OC)cc4)c3)nc2n(CCC)c1=O`, for which the Ki was found to be 70 nM on Adenosine receptor A1, 61 nM on Adenosine receptor A2a and 37 nM at Adenosine receptor A2b.

The molecule `CCCn1c(=O)c2[nH]c(-c3cnn(Cc4ccc(F)c(C(F)(F)F)c4)c3)nc2n(CCC)c1=O` came in with a Ki on Adenosine receptor A2b of 640 nM.

`CC(C)Cn1c(=O)c2nc(-c3cnn(Cc4cccc(C(F)(F)F)c4)c3)[nH]c2n(CC(C)C)c1=O`: the Ratio Ki is 14 in assay [2] and 10 in assay [1].

The molecule `CCCn1c(=O)c2nc(-c3cnn(Cc4c(F)cc(F)cc4F)c3)[nH]c2n(CCC)c1=O` displayed a Ki on Adenosine receptor A2b of 650 nM.

As for `CCCn1c(=O)c2nc(-c3cnn(Cc4ccccc4OC)c3)[nH]c2n(CCC)c1=O`, the figures for the Ratio Ki in assay [2] and in assay [1] were 4 and 2, respectively.

In the case of `CCCn1c(=O)c2[nH]c(-c3cnn(Cc4ccc(F)cc4)c3)nc2n(CCC)c1=O`, the Ki on Adenosine receptor A1 was 23 nM; at Adenosine receptor A2a, 120 nM; on Adenosine receptor A2b it was 22 nM.

For the molecule `CCCn1c(=O)c2nc(-c3cnn(Cc4ccc(OC)cc4)c3)[nH]c2n(CCC)c1=O`, the Ratio Ki in assay [2] came out at 1; in assay [1], 2.

At Adenosine receptor A2b, `CCCn1c(=O)c2nc(-c3cnn(-c4ccccc4)c3C(F)(F)F)[nH]c2n(CCC)c1=O` gave a Ki greater than 6600 nM.

For `CC(C)Cn1c(=O)c2nc(-c3cnn(Cc4cccc(F)c4)c3)[nH]c2n(CC(C)C)c1=O`, the Ratio Ki in assay [2] and in assay [1] was 1 each time.

As for `CCCn1c(=O)c2[nH]c(-c3cnn(-c4ccc(Cl)cc4)c3C(F)(F)F)nc2n(CCC)c1=O`, the Ki at Adenosine receptor A2b was greater than 6600 nM.

As for `CCCn1c(=O)c2nc(-c3cnn(Cc4cccc(C)c4F)c3)[nH]c2n(CCC)c1=O`, the Ratio Ki was determined as 10 in assay [2] and 9 in assay [1].

`CCCn1c(=O)c2nc(-c3cnn(Cc4c(F)cccc4F)c3)[nH]c2n(CCC)c1=O`: the Ki at Adenosine receptor A2b is 390 nM.

Take `CCCn1c(=O)c2nc(-c3cnn(Cc4ccc(C)cc4)c3)[nH]c2n(CCC)c1=O`: the values for the Ratio Ki in assay [2] and in assay [1] were 2 and 1, respectively.

Take `CCCn1c(=O)c2nc(-c3cnn(Cc4ccc(OC)c(C(F)(F)F)c4)c3)[nH]c2n(CCC)c1=O`: the affinity at Adenosine receptor A2b, expressed as Ki, was 410 nM.

For `CCCn1c(=O)c2nc(-c3cnn(Cc4ccccc4C(F)(F)F)c3)[nH]c2n(CCC)c1=O`, the Ratio Ki came to 6 in assay [2] and 1 in assay [1].

In the case of `CCCn1c(=O)c2[nH]c(-c3cnn(Cc4ccccc4OC)c3)nc2n(CCC)c1=O`, the values for the Ki at Adenosine receptor A1, on Adenosine receptor A2a and on Adenosine receptor A2b were 59 nM, 140 nM and 37 nM, respectively.

With `CCCn1c(=O)c2[nH]c(-c3cnn(Cc4cccc(F)c4F)c3)nc2n(CCC)c1=O`, the inhibitory constant (Ki) at Adenosine receptor A2b came out at 240 nM.

`CCCn1c(=O)c2nc(-c3cnn(Cc4cc(Cl)ccc4Cl)c3)[nH]c2n(CCC)c1=O`: the results for the Ratio Ki in assay [2] and in assay [1] were 2 and 6, respectively.

Turning to `CCn1c(=O)c2nc(-c3cnn(Cc4ccccc4)c3)[nH]c2n(CC)c1=O`, the Ratio Ki in assay [2] was 6; in assay [1], 30.

For `CCCn1c(=O)c2c(nc(-n3cc(I)cn3)n2Cc2ccccc2)n(CCC)c1=O`, the Ki on Adenosine receptor A2b is greater than 5800 nM.

Take `CCCn1c(=O)c2nc(-c3cnn(Cc4ccc(F)cc4)c3)[nH]c2n(CCC)c1=O`: the Ratio Ki in assay [2] turned out to be 5; in assay [1] it was 1.

`CCCn1c(=O)c2nc(-c3cc(C)nn3CC)[nH]c2n(CCC)c1=O` yielded a Ki at Adenosine receptor A2b of 2100 nM.

In turn, `CCCn1c(=O)c2nc(-c3cnn(-c4ccccc4)c3C)[nH]c2n(CCC)c1=O` had a Ki at Adenosine receptor A2b greater than 4100 nM.

For the molecule `CCCn1c(=O)c2[nH]c(-c3cnn(Cc4cc(Cl)ccc4Cl)c3)nc2n(CCC)c1=O`, the results for the Ki at Adenosine receptor A1, at Adenosine receptor A2a and at Adenosine receptor A2b were 190 nM, 70 nM and 29 nM, respectively.

With `CCCn1c(=O)c2nc(-c3cnn(Cc4ccc(Cl)c(C(F)(F)F)c4)c3)[nH]c2n(CCC)c1=O`, on Adenosine receptor A2b, the Ki is 200 nM.

`CCCn1c(=O)c2[nH]c(-c3cnn(Cc4ccccc4C)c3)nc2n(CCC)c1=O`: the values for the Ki on Adenosine receptor A1, on Adenosine receptor A2a and at Adenosine receptor A2b were 22 nM, 51 nM and 33 nM, respectively.

As to `CCCn1c(=O)c2nc(-c3cnn(Cc4cccc(C)c4)c3)[nH]c2n(CCC)c1=O`, the Ratio Ki in assay [2] amounted to 2; in assay [1], 1.

Take `CCCn1c(=O)c2[nH]c(-c3cnn(Cc4cccc(C)c4)c3)nc2n(CCC)c1=O`: the Ki came to 48 nM at Adenosine receptor A1, 66 nM on Adenosine receptor A2a and 36 nM at Adenosine receptor A2b.

`CCCn1c(=O)c2nc(-c3cnn(Cc4ccc(F)cc4F)c3)[nH]c2n(CCC)c1=O` displayed a Ki at Adenosine receptor A2b of 700 nM.

Take `CCCn1c(=O)c2[nH]c(-c3cc(C)nn3C)nc2n(CCC)c1=O`: on Adenosine receptor A2b, the Ki was determined as 3700 nM. Compared with the last molecule, the Ki is about 5.3-fold higher.

For `CC(C)Cn1c(=O)c2[nH]c(-c3cnn(Cc4cccc(F)c4)c3)nc2n(CC(C)C)c1=O`, the Ki is 830 nM on Adenosine receptor A1, 1300 nM on Adenosine receptor A2a and 990 nM on Adenosine receptor A2b.

Take `CCCn1c(=O)c2[nH]c(-c3cnn(Cc4cccc(C)c4F)c3)nc2n(CCC)c1=O`: the Ki on Adenosine receptor A1 was determined as 390 nM; at Adenosine receptor A2a, 460 nM; on Adenosine receptor A2b, 44 nM.

As for `CC(C)Cn1c(=O)c2[nH]c(-c3cnn(Cc4ccccc4)c3)nc2n(CC(C)C)c1=O`, the Ki came out at 620 nM on Adenosine receptor A1, 1100 nM at Adenosine receptor A2a and 1250 nM on Adenosine receptor A2b.

As to `CCCn1c(=O)c2[nH]c(-c3cnn(Cc4ccc(C)cc4)c3)nc2n(CCC)c1=O`, the Ki on Adenosine receptor A1 turned out to be 38 nM; at Adenosine receptor A2a, 80 nM; at Adenosine receptor A2b, 40 nM.

For `CCCn1c(=O)c2nc(-n3cccn3)[nH]c2n(CCC)c1=O`, the Ki on Adenosine receptor A2b is greater than 5800 nM.

The molecule `CCCc1c(-c2nc3c([nH]2)c(=O)n(CCC)c(=O)n3CCC)cnn1-c1ccccc1` came in with a Ki at Adenosine receptor A2b greater than 6600 nM.

As for `CCCn1c(=O)c2nc(-c3ccnn3-c3ccccc3)[nH]c2n(CCC)c1=O`, at Adenosine receptor A2b, affinity was put at a Ki of 1100 nM.
